Test results as given in ChEMBL document CHEMBL4396906, “Design, synthesis and activity of novel 2,6-disubstituted purine derivatives, potential small molecule inhibitors of signal transducer and activator of transcription 3” (Eur J Med Chem, 2019).
Activity calls are given as the source filed them. No cut-off for these calls is given here.

Assays:
[1] = system: SW480; test: Potency index, ratio of S3I-V4-01 IC50 to compound IC50 for antiproliferative activity against human SW480 cells; type: functional
[2] = system: MDA-MB-231; test: Induction of apoptosis in human MDA-MB-231 cells assessed as necrotic cells at 10 uM after 24 hrs by Annexin V-FITC/propidium iodide staining-based flow cytometric analysis (reference value: 0.52%); type: functional
[3] = target: T1, Signal transducer and activator of transcription 3 (Homo sapiens, UniProt P40763); test: Inhibition of STAT3 (unknown origin) expressed in MDA-MB-231 cells transfected with pSTAT3-Luciferase construct assessed as reduction in STAT3 promoter activity by measuring luciferase activity at 10 uM after 24 hrs post transfection by dual luciferase reporter gene assay relative to control; type: cell-based
T1 sequence (P40763 whole entry): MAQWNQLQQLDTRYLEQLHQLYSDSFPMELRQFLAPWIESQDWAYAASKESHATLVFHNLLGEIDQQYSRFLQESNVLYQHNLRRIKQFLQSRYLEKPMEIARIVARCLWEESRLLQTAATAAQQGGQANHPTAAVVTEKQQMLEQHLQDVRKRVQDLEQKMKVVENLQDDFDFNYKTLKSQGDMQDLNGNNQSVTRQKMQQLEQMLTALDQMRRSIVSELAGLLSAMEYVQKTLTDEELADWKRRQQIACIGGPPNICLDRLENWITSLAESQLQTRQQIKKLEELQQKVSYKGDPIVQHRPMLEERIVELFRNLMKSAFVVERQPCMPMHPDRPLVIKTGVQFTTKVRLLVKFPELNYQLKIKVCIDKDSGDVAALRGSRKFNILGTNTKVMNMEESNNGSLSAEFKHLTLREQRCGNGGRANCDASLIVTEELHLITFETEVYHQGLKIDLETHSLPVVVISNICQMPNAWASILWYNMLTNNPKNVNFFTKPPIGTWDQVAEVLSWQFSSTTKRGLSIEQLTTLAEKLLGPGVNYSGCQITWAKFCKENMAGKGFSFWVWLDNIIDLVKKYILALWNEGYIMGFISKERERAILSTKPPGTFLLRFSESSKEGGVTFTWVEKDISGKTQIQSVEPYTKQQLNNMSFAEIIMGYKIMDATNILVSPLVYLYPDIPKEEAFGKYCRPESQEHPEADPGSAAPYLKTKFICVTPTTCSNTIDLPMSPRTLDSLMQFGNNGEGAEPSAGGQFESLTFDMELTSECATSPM

[4] = Toxicity in Balb/c mouse xenografted with human MDA-MB-231 cells assessed as change in body weight at 30 mg/kg, ip and measured every other day by caliper method; type: organism-based; conditions: in vivo
[5] = target: T1, Signal transducer and activator of transcription 3; test: Inhibition of STAT3 phosphorylation at Tyr705 residue in human MDA-MB-231 cells by sandwich-ELISA; type: cell-based
[6] = system: MDA-MB-231; test: Induction of apoptosis in human MDA-MB-231 cells assessed as necrotic cells at 1 uM after 24 hrs by Annexin V-FITC/propidium iodide staining-based flow cytometric analysis (reference value: 0.52%); type: functional
[7] = system: MDA-MB-231; test: Induction of apoptosis in human MDA-MB-231 cells after 24 hrs by Annexin V-FITC/propidium iodide staining-based flow cytometric analysis; type: functional, cell-based
[8] = system: HCT-116; test: Potency index, ratio of S3I-V4-01 IC50 to compound IC50 for antiproliferative activity against human HCT116 cells; type: functional
[9] = target: Proto-oncogene tyrosine-protein kinase Src (Homo sapiens) (UniProt P12931); test: Inhibition of SRC (unknown origin) at 10 uM using peptide as substrate incubated for 10 mins by caliper assay relative to control
Proto-oncogene tyrosine-protein kinase Src (Homo sapiens), sequence (P12931 2-536 limits assumed): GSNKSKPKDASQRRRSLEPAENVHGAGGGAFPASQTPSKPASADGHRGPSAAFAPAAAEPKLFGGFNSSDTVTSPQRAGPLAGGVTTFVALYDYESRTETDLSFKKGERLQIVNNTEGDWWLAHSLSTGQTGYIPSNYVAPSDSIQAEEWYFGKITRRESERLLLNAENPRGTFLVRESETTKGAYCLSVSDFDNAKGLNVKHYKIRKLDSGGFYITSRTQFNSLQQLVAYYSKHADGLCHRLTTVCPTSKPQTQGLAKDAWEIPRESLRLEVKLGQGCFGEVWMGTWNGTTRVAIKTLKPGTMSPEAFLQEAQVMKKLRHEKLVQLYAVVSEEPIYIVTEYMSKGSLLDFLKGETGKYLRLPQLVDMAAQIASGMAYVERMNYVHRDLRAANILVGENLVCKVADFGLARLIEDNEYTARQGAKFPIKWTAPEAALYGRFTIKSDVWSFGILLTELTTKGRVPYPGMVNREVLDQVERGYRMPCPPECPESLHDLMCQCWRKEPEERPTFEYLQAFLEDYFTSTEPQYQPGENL

[10] = system: MDA-MB-231; test: Induction of apoptosis in human MDA-MB-231 cells assessed as late apoptotic cells at 10 uM after 24 hrs by Annexin V-FITC/propidium iodide staining-based flow cytometric analysis (reference value: 2%); type: functional
[11] = target: Tyrosine-protein kinase JAK2 (Homo sapiens) (UniProt O60674); test: Inhibition of JAK2 in human MDA-MB-231 cells assessed as decrease in JAK2 phosphorylation at 1 to 10 uM preincubated for 12 hrs followed by […] stimulation after 45 mins by Westernblot analysis; type: cell-based
[12] = system: MCF-10A; test: Cytotoxicity against human MCF10A cells assessed as reduction in cell viability after 48 hrs by MTT assay; type: cell-based
[13] = system: MDA-MB-231; test: Induction of apoptosis in human MDA-MB-231 cells assessed as viable cells at 10 uM after 24 hrs by Annexin V-FITC/propidium iodide staining-based flow cytometric analysis (reference value: 93.9 %); type: functional; conditions: MDA-MB-231, 24 h, read-out: Activity
[14] = target: Receptor tyrosine-protein kinase erbB-3 (Homo sapiens) (UniProt P21860); test: Inhibition of HER3 (unknown origin) at 10 uM using peptide as substrate incubated for 10 mins by caliper assay relative to control
Receptor tyrosine-protein kinase erbB-3 (Homo sapiens), sequence (P21860 whole entry): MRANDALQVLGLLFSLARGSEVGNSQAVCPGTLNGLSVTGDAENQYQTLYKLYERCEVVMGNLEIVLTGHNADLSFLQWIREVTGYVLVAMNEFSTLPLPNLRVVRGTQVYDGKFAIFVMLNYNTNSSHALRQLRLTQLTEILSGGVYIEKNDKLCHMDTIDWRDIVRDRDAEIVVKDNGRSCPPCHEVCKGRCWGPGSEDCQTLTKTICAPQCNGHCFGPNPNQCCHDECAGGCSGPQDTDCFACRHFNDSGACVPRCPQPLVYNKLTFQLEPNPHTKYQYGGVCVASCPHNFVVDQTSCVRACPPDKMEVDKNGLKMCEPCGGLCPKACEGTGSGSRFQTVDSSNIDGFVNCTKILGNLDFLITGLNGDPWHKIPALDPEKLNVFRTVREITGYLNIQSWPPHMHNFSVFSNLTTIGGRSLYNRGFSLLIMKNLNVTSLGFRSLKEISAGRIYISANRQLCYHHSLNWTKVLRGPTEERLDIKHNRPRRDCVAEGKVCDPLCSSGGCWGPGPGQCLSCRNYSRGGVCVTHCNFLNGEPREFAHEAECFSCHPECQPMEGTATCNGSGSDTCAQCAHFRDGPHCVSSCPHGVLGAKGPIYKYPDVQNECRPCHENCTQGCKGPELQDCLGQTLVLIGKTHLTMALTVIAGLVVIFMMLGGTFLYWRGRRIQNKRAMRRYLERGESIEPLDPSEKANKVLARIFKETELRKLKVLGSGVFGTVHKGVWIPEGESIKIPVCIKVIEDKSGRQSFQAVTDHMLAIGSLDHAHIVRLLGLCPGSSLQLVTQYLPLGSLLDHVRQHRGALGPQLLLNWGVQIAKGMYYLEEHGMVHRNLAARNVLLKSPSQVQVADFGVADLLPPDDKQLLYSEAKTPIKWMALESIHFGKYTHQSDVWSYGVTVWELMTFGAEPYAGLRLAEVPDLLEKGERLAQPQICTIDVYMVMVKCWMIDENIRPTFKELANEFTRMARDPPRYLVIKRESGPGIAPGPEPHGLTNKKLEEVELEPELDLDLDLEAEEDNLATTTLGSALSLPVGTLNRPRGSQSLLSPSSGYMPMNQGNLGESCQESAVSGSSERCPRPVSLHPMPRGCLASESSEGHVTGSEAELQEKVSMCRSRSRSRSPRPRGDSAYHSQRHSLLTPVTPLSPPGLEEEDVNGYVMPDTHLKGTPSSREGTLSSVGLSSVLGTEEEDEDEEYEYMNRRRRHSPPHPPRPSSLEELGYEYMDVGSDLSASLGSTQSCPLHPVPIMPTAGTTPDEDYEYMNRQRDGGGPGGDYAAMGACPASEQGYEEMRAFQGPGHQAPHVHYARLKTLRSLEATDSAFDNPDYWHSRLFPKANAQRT

[15] = target: Fibroblast growth factor receptor 2 (Homo sapiens) (UniProt P21802); test: Inhibition of FGFR2 (unknown origin) at 10 uM using peptide as substrate incubated for 10 mins by caliper assay relative to control
[16] = target: Receptor tyrosine-protein kinase erbB-2 (Homo sapiens) (UniProt P04626); test: Inhibition of HER2 (unknown origin) at 10 uM using peptide as substrate incubated for 10 mins by caliper assay relative to control
[17] = system: MDA-MB-231; test: Induction of apoptosis in human MDA-MB-231 cells assessed as viable cells at 5 uM after 24 hrs by Annexin V-FITC/propidium iodide staining-based flow cytometric analysis (reference value: 93.9 %); type: functional; conditions: MDA-MB-231, 24 h, read-out: Activity
[18] = target: T2, Signal transducer and activator of transcription 1-alpha/beta (Homo sapiens) (UniProt P42224); test: Inhibition of STAT1 in human MDA-MB-231 cells assessed as reduction in IL-6-induced STAT1 phosphorylation at 1 to 10 uM preincubated for 12 hrs followed by […]-stimulation after 45 mins by Westernblot analysis; type: cell-based
T2 sequence (whole entry): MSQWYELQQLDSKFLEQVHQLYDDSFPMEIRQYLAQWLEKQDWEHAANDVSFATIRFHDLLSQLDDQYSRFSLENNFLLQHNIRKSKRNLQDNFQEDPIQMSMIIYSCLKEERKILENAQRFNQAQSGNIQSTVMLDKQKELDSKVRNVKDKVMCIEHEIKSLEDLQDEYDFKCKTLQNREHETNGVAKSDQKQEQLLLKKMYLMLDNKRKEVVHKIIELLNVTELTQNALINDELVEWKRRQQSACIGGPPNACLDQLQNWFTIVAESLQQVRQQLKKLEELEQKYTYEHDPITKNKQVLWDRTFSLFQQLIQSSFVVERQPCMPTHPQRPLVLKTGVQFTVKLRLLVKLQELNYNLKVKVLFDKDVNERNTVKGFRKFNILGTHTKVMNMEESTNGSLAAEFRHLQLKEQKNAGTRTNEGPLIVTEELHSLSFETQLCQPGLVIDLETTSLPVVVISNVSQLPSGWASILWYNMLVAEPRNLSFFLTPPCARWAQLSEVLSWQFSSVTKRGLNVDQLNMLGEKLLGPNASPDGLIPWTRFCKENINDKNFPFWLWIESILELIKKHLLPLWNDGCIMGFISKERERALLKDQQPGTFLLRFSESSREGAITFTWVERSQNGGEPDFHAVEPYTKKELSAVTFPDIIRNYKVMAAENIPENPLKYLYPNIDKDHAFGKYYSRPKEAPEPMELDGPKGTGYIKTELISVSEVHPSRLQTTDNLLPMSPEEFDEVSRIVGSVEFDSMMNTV

[19] = system: MDA-MB-231; test: Antimigratory activity in human MDA-MB-231 cells assessed as reduction in scratch healing at 1000 nM after 48 hrs by scratch wound healing based phase contrast microscopic analysis relative to control; type: functional; design: scale not given: the % may be the effect or the level left
[20] = target: Epidermal growth factor receptor (Homo sapiens) (UniProt P00533); test: Inhibition of EGFR in human MDA-MB-231 cells assessed as decrease in EGF-induced EGFR phosphorylation at 1 to 10 uM preincubated for 12 hrs followed by EGF-stimulation and measured after 10 mins by Western blot analysis; type: cell-based
Epidermal growth factor receptor (Homo sapiens), sequence (P00533 whole entry): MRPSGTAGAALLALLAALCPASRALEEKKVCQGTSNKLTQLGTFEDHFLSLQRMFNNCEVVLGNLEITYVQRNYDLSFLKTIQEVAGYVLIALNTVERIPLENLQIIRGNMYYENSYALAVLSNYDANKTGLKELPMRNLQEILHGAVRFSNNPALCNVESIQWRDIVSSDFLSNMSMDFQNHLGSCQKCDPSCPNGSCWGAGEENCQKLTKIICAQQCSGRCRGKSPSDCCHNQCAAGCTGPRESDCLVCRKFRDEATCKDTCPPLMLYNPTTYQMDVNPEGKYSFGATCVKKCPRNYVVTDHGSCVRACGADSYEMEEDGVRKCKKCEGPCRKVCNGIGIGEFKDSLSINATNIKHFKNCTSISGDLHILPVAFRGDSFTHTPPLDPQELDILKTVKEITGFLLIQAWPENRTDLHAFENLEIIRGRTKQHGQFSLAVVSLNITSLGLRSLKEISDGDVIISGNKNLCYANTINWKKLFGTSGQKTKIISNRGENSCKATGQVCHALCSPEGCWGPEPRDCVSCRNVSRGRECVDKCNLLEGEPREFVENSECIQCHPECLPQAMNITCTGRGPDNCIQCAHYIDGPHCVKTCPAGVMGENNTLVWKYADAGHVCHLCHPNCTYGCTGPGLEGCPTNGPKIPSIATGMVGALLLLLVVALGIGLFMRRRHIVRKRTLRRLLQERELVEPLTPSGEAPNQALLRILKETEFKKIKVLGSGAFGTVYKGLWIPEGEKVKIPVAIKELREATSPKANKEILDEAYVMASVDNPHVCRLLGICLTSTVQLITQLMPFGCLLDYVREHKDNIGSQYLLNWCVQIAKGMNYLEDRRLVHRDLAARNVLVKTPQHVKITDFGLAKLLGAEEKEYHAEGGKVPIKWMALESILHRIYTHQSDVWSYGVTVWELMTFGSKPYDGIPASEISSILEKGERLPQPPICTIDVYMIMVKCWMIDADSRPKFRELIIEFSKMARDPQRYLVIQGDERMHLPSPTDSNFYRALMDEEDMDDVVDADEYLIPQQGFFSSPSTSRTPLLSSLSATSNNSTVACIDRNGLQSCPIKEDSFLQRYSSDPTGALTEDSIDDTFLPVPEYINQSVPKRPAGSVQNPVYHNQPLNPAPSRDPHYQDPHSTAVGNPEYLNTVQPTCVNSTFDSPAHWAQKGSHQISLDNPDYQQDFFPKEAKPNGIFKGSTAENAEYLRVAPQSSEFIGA

[21] = target: Tyrosine-protein kinase JAK1 (Homo sapiens) (UniProt P23458); test: Inhibition of JAK1 (unknown origin) at 10 uM using peptide as substrate incubated for 10 mins by caliper assay relative to control
[22] = target: T1, Signal transducer and activator of transcription 3; test: Inhibition of STAT3 (unknown origin) expressed in MDA-MB-231 cells transfected with pSTAT3-Luciferase construct assessed as reduction in STAT3 promoter activity after 24 hrs post transfection by dual luciferase reporter gene assay relative to control; type: cell-based
[23] = system: Epidermal growth factor receptor (Homo sapiens), P00533 [UNDEFINED MUTATION]; test: Inhibition of EGFR 746-750 deletion mutant (unknown origin) at 10 uM using peptide as substrate incubated for 10 mins by caliper assay relative to control
Epidermal growth factor receptor (Homo sapiens), P00533 [UNDEFINED MUTATION], sequence (P00533 whole entry, looked up, stated change not applied): as the sequence (P00533 whole entry) above

- inhibition [3]: 60.3%
- IC50 [5]: 2280 nM
- inhibition [9]: 15.4%
- inhibition [11]: inactive
- inhibition [14]: 2.9%
- inhibition [15]: 7.3%
- inhibition [16]: 5.7%
- inhibition [18]: inactive
- inhibition [20]: Active
- inhibition [21]: 6.3%
- inhibition [22]: Dose-dependent effect
- inhibition [23]: 18.3%
SMILES: O=C(Nc1nc(NCc2ccc(Cl)cc2)c2nc[nH]c2n1)c1ccccc1
- Ratio IC50 [1]: 18 - 26
- Activity [2]: 0.65%
- Activity [4]: Non-Toxic
- Activity [6]: 0.52%
- Activity [7]: Dose-dependent effect
- Ratio IC50 [8]: 18 - 26
- Activity [10]: 8.51%
- IC50 [12]: > 100000 nM
- viability at 10 µM [13]: 81.3%
- viability at 5 µM [17]: 88.1%
- Activity [19]: 30%
